Measured values reported in ChEMBL document CHEMBL2429832, “N-substituted 8-aminopentacyclo[5.4.0.0(2,6).0(3,10).0(5,9)]undecanes as σ receptor ligands with potential neuroprotective effects” (Bioorg Med Chem, 2013).

Legend:
[1] = molecular target: T1, 5-hydroxytryptamine receptor 1A (Homo sapiens) (UniProt P08908); experiment: Inhibition of 5-HT1A receptor (unknown origin) at 10 uM by PDSP assay relative to control
T1 sequence (whole entry): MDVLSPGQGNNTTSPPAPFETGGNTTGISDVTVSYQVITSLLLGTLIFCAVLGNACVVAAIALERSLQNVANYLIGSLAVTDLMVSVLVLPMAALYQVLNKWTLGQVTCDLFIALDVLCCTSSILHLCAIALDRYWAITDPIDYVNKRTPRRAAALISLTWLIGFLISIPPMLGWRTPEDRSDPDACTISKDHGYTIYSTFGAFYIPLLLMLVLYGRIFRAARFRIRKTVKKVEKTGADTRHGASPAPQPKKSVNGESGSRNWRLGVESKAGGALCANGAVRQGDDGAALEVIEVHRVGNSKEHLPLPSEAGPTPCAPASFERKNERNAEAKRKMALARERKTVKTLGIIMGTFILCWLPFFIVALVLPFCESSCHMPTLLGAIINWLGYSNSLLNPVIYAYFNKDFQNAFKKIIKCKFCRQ

Histamine H1 receptor = Histamine H1 receptor (Homo sapiens, UniProt P35367); experiment: Inhibition of histamine H1 receptor (unknown origin) at 10 uM by PDSP assay relative to control
D(3) dopamine receptor = D(3) dopamine receptor (Homo sapiens, UniProt P35462); experiment: Inhibition of dopamine D3 receptor (unknown origin) at 10 uM by PDSP assay relative to control
[2] = molecular target: Beta-3 adrenergic receptor (Homo sapiens) (UniProt P13945); experiment: Inhibition of adrenergic beta3 receptor (unknown origin) at 10 uM by PDSP assay relative to control
Rattus norvegicus = organism: Rattus norvegicus; experiment: Inhibition of rat brain BZP receptor at 10 uM by PDSP assay relative to control
[3] = molecular target: T2, Alpha-1A adrenergic receptor (Homo sapiens) (UniProt P35348); experiment: Inhibition of adrenergic alpha1A receptor (unknown origin) at 10 uM by PDSP assay relative to control
T2 sequence (whole entry): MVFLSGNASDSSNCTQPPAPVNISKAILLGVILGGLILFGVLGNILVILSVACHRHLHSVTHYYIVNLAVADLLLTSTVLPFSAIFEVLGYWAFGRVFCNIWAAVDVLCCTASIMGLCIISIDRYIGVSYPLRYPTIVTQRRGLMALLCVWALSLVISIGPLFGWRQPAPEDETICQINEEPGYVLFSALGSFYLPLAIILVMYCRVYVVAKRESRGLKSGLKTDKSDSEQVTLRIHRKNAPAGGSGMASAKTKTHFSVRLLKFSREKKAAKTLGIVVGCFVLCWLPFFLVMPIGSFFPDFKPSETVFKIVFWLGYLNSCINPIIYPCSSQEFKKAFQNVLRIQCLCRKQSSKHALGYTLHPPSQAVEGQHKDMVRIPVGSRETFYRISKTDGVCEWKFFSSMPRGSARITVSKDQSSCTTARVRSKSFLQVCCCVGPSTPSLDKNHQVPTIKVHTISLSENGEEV

[4] = molecular target: T3, Muscarinic acetylcholine receptor M4 (Homo sapiens, UniProt P08173); experiment: Inhibition of muscarinic M4 receptor (unknown origin) by PDSP assay
T3 sequence (P08173 whole entry): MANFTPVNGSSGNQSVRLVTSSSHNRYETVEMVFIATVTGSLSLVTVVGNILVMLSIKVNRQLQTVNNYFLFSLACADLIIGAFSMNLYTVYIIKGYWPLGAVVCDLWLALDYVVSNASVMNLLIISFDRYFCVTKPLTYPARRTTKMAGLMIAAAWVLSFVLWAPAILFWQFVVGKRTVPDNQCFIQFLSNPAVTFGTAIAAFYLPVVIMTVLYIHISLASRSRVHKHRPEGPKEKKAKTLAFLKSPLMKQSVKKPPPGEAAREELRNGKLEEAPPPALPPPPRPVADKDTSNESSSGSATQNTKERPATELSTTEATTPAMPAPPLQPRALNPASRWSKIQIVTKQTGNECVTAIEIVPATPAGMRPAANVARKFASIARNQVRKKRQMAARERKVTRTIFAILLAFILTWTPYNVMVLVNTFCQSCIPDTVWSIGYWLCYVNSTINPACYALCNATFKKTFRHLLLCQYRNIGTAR

[5] = Displacement of [3H]-DTG from sigma-2 receptor in rat PC12 cells; format: cell-based; details: pc-12
[6] = molecular target: Kappa-type opioid receptor (Homo sapiens, UniProt P41145); experiment: Inhibition of kappa opioid receptor (unknown origin) at 10 uM by PDSP assay relative to control
[7] = molecular target: T4, Muscarinic acetylcholine receptor M1 (Homo sapiens) (UniProt P11229); experiment: Inhibition of muscarinic M1 receptor (unknown origin) at 10 uM by PDSP assay relative to control
T4 sequence (whole entry): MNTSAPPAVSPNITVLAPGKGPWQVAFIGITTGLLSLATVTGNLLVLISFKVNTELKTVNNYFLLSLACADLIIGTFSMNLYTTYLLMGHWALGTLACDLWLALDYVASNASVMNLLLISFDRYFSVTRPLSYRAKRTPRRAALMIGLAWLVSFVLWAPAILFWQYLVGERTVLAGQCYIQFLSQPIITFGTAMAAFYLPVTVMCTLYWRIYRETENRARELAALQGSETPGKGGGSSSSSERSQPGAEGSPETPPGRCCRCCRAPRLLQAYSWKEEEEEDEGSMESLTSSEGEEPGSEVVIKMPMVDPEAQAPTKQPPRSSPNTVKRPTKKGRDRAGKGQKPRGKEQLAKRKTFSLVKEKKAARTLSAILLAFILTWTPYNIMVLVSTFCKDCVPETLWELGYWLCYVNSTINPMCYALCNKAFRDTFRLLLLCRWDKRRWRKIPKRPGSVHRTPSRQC

[8] = molecular target: 5-hydroxytryptamine receptor 6 (Homo sapiens, UniProt P50406); experiment: Inhibition of 5-HT6 receptor (unknown origin) at 10 uM by PDSP assay relative to control
[9] = molecular target: T5, 5-hydroxytryptamine receptor 2C (Homo sapiens) (UniProt P28335); experiment: Inhibition of 5-HT2C receptor (unknown origin) at 10 uM by PDSP assay relative to control
T5 sequence (whole entry): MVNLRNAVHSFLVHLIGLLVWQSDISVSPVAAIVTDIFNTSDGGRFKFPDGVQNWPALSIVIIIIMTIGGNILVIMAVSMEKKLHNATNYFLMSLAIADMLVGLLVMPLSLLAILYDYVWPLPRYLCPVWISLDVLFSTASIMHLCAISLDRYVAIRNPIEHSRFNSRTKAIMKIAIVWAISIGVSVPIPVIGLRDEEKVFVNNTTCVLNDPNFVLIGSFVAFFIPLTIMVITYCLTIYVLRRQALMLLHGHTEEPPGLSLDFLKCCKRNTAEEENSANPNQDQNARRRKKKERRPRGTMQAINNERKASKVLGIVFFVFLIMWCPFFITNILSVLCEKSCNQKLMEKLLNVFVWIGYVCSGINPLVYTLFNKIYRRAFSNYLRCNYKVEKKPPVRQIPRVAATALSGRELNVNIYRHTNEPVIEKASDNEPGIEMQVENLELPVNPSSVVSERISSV

Beta-3 adrenergic receptor (Homo sapiens), sequence (P13945 whole entry, looked up): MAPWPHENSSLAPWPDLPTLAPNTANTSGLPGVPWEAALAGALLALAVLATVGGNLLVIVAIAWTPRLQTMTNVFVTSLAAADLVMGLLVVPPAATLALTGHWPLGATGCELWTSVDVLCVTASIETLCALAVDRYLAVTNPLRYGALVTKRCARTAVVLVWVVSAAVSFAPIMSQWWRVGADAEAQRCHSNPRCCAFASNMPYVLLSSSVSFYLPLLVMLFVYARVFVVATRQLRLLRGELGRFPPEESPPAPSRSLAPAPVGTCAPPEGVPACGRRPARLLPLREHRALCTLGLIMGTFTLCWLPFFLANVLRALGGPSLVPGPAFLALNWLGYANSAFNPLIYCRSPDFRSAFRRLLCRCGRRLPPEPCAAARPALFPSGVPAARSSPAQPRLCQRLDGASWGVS
5-hydroxytryptamine receptor 6, sequence (P50406 whole entry): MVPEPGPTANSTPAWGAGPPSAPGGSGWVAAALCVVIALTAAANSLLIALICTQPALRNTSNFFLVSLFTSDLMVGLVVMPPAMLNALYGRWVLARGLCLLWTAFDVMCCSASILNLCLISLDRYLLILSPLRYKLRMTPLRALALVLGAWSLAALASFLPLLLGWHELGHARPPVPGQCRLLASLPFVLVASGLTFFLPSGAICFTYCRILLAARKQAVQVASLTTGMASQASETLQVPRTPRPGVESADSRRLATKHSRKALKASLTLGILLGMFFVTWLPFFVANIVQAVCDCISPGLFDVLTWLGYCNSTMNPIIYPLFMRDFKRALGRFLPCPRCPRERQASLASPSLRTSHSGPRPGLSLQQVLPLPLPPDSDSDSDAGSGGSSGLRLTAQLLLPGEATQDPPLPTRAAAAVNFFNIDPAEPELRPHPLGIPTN
Histamine H1 receptor, sequence (P35367 whole entry): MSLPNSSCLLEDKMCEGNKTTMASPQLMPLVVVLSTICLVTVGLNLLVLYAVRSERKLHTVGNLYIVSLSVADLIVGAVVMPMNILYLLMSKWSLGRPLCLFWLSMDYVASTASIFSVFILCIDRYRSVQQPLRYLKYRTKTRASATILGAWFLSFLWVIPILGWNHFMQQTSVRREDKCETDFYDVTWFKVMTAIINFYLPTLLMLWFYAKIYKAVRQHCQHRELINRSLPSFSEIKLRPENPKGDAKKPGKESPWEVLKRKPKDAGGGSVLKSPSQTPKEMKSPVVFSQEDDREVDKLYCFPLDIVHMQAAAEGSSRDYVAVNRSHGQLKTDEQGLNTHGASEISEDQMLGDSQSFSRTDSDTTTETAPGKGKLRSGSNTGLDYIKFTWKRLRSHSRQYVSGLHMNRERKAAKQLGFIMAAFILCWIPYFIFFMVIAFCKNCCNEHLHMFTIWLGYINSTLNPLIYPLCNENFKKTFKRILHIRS
D(3) dopamine receptor, sequence (P35462 whole entry): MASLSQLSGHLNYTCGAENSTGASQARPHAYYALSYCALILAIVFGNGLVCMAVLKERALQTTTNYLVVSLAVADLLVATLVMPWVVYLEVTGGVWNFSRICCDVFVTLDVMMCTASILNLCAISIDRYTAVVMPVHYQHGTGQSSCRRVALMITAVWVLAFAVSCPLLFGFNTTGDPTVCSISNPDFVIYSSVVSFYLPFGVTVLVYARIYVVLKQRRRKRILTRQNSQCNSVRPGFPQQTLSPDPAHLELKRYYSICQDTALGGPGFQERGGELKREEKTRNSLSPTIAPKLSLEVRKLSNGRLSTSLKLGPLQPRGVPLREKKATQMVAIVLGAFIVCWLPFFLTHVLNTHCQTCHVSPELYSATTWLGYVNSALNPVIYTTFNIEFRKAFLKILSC
Kappa-type opioid receptor, sequence (P41145 whole entry): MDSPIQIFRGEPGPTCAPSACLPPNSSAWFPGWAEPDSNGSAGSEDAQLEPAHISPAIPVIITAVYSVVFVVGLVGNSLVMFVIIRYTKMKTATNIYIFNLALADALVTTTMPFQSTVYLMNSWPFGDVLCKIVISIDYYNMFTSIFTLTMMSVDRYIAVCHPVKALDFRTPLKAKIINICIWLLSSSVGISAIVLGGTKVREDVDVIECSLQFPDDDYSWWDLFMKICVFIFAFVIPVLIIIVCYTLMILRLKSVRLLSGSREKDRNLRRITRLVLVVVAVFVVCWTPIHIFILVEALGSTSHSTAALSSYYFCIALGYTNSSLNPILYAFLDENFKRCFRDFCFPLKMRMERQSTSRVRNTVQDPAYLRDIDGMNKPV

Row | inhibition [1] [%] | inhibition (Histamine H1 receptor) [%] | inhibition (D(3) dopamine receptor) [%] | inhibition [2] [%] | inhibition (Rattus norvegicus) [%] | inhibition [3] [%] | Ki [4] [nM] | inhibition [6] [%] | inhibition [7] [%] | inhibition [8] [%] | inhibition [9] [%] | Compound | Ki [5] [nM]
1 | < 50 | < 50 | < 50 | < 50 | < 50 | < 50 | 6810 | < 50 | < 50 | < 50 | < 50 | COc1ccc(CN(C)[C@H]2C3C4CC5C6C4CC3C6C52)cc1OC (stereo partly drawn) | 27
2 | < 50 | < 50 | < 50 | < 50 | < 50 | < 50 | 1260 | < 50 | – | < 50 | < 50 | CN(Cc1ccccc1)[C@H]1C2C3CC4C2C(=O)C2C4C3C21 (stereo partly drawn) | 217
3 | < 50 | < 50 | < 50 | < 50 | < 50 | < 50 | 5910 | < 50 | < 50 | < 50 | < 50 | COc1cc(CN(C)[C@H]2C3C4CC5C6C4CC3C6C52)cc(OC)c1OC (stereo partly drawn) | 714
4 | < 50 | < 50 | < 50 | < 50 | < 50 | < 50 | 619 | < 50 | – | < 50 | < 50 | CN(CCCc1cccc(F)c1)[C@H]1C2C3CC4C2C(=O)C2C4C3C21 (stereo partly drawn) | 30
5 | < 50 | < 50 | < 50 | < 50 | < 50 | < 50 | 7380 | < 50 | < 50 | < 50 | < 50 | COc1ccc(CN(C)[C@H]2C3C4CC5C3C(=O)C3C5C4C32)cc1OC (stereo partly drawn) | 471
6 | < 50 | < 50 | < 50 | < 50 | < 50 | < 50 | 6990 | < 50 | < 50 | < 50 | < 50 | CN(Cc1cccnc1)[C@H]1C2C3CC4C2C(=O)C2C4C3C21 (stereo partly drawn) | 2630
7 | < 50 | < 50 | < 50 | < 50 | < 50 | < 50 | 3590 | < 50 | < 50 | < 50 | < 50 | CN(CCc1ccccc1)[C@H]1C2C3CC4C2C(=O)C2C4C3C21 (stereo partly drawn) | 172
8 | – | < 50 | < 50 | < 50 | < 50 | < 50 | 4040 | < 50 | < 50 | < 50 | < 50 | CN(Cc1cccc(F)c1)[C@H]1C2C3CC4C2C(=O)C2C4C3C21 (stereo partly drawn) | 168
